# Data from patent US20030152986A1, “Method for sorting antifungal molecules acting on the glucanosyltransferase activity” (Institut Pasteur, priority 1996, published 2003).
# T1: 49 kDa enzyme (Aspergillus fumigatus, UniProt B0XT72)
# T1 construct: from tissue; host or cells: Aspergillus fumigatus CBS 144-89 mycelium, cell wall autolysate; four ion-exchange steps and one gel filtration
# T1 sequence (B0XT72 whole entry, looked up): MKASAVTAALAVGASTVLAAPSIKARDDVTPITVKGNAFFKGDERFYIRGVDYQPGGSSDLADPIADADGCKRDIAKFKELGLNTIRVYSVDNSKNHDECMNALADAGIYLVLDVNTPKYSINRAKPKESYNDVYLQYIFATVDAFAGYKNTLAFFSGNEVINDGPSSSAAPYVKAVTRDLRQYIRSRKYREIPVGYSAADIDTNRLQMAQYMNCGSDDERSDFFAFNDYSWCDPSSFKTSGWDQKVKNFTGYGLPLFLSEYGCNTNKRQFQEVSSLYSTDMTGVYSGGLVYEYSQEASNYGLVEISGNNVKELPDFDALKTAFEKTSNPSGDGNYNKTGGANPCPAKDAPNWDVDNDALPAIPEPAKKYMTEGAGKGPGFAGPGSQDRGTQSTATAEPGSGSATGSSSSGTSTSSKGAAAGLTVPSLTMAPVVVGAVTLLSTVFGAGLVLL
# Experiments:
# [1] = molecular target: T2, 49 kDa β-(1-3)-glucanosyltransferase (BGT2) (Aspergillus fumigatus, UniProt B0XT72); assay: Transferase assay with reduced (^3H-marked) laminarioligosaccharides, products separated by HPAEC; assay type: biochemical; settings: for activity of the transferase towards the substance as substrate/donor: incubation with 49 kDa transferase, HPAEC analysis of products
# T2 construct: from tissue; host or cells: Aspergillus fumigatus CBS 144-89 mycelium, cell wall autolysate; four ion-exchange steps and one gel filtration
# Procedure: The enzyme fractions were assayed for transferase activity by incubation in 50 mM Na citrate, pH 5.0 at 37° C. (10 μl volume per assay) with a laminarioligosaccharide reduced with borohydride (8 mM final) of at least size G10. Samples (3 μl) were taken at different times, 50 mM NaOH cooled in ice (47 μl) was added to terminate the reaction, and the mixture was frozen until analyzed by high-performance anion-exchange chromatography (HPAEC). Since the peak intensities detected by Pulsed Electrochemical Detector (PED) varied from day to day, the transferase activity was quantified by use of reduced laminarioligosaccharides marked with ^3H as substrates and measurement of the appearance of the marking in the products after separation by HPAEC chromatography, using the on-line Radiomatic 150TR scintillation rate analysis apparatus (Packard).
# Except where otherwise mentioned, the assays for the enzyme characterization studies were performed as above with 0.25 μg of purified transferase.
# The samples from the transferase tests were analyzed on a Dionex CarboPac PA1 analytical column (4×250 mm) (with a PA1 reference column) on a Dionex HPAEC-type system with pulsed electrochemical detection (PED-2 cell), fitted with a combination of pH-Ag/AgCl reference electrodes and using a potential of 0.4 V for the first 0.5 s of detection. The oligosaccharides were eluted under the following conditions: flow rate 1 ml/min, buffer A: 50 mM NaOH; buffer B: 500 mM sodium acetate in 50 mM NaOH; gradient 0 to 2 min, 98% A 2% B (isocratic), 2 to 15 min 75% A 25% B (linear), 15 to 45 min 60% A 40% B (linear).
# In order to determine the relative reaction rate of the enzymes with laminarioligosaccharides of variable sizes, the 49 kDa enzyme (0.25 μg) was incubated with 8 mM of rG10 to rG15 marked with ^3H and the rate of formation of the marked products was measured. The rate with rG10 (328 nmol.min^−1) was approximately equal to 50% of that with the larger substrates and there was no significant difference between the reaction rates for rG11 to rG15 (648±46 nmol.min^−1.mg protein^−1).
# The relative rate of the reaction with the acceptors was determined by using 2 mM of rG11 as donor and 32 mM of reduced acceptor marked with ^3H and measuring the formation of marked transferase product (FIG. 4). Under these conditions, the reaction with rG11 used as acceptor was negligible. The reaction rate increased with an increase in chain length, showing that the 49 kDa enzyme prefers the larger laminarioligosaccharide acceptors.
# By using rG11 as substrate, it was impossible to calculate an apparent Km corresponding to the two steps of the reaction. In order to determine a Km for the donor site, we used an acceptor which was not a donor. We used [^3H]-rG7 (1×10^6 cpm) as acceptor at a high concentration (64 mM) with different concentrations of rG11 kept below 8 mM. Under these conditions, the reaction took place with rG11 as donor and rG7 was used rather than rG11 as acceptor, as determined by the absence of formation of the transferase product rG16. The initial reaction rate was determined by measuring the appearance of marked rG12.
# [2] = molecular target: T1, 49 kDa enzyme; assay: Optimum pH and storage stability of the 49 kDa enzyme; assay type: biochemical
# Procedure: FIG. 6 illustrates the effect of pH on the transfer rate. The 49 kDa transferase was incubated with 8 μM of [^3H]-rG11 (1×10^6 cpm). The reaction rates were determined by measuring the quantity of marking formed in the form of the product rG16. The buffers used were: ●, sodium citrate/citric acid; ∘, imidazole/citric acid; x, sodium acetate/acetic acid; [formula], Tris/glycine; ▴, phosphate/NaOH; □, Tris/acetic acid; Δ, glycine/HCl.
# The 49 kDa enzyme was tested at different pH values, the storage stability was verified and the activity of the N-glycosylated enzyme was tested. The enzyme was active over a wide range of acid pH, showing an activity of more than 50% of its maximum between pH 2.5 and 6.0.
molecule,measurement,setting,value
OC[C@H]1O[C@@H](O[C@H]2[C@H](O)[C@@H](O)[C@H](O[C@H]3[C@H](O)[C@@H](O)[C@H](O[C@H]4[C@H](O)[C@@H](O)[C@H](O[C@H]5[C@H](O)[C@@H](O)C(O)O[C@@H]5CO)O[C@@H]4CO)O[C@@H]3CO)O[C@@H]2CO)[C@H](O)[C@@H](O)[C@@H]1O (stereo partly shown) [ceflopentaose],activity of the transferase towards the substance as substrate/donor,[1],no activity
chitohexaose,activity of the transferase towards the substance as substrate/donor,[1],no activity
gentiooligosaccharides,activity of the transferase towards the substance as substrate/donor,[1],no activity
maltoheptaose,activity of the transferase towards the substance as substrate/donor,[1],no activity
reduced laminarihexose [[^3H]-rG6],Transfer rate,"[1]; 2 mM rG11 as donor, 32 mM ^3H-marked reduced acceptor, initial rate of formation of transfer product",387 nmol.min^−1.mg protein^−1
"49 kDa enzyme: β-(1-3)-glucanosyltransferase purified from cell wall autolysate of A. fumigatus, SEQ ID NO 2/3 (protein, listed as Aspergillus fumigatus) chain 1: MKASAVTAALAVGASTVLAAPSIKARDDVTPITVKGNAFFKGDERFYIRGVDYQPGGSSDLADPIADADGCKRDIAKFKELGLNTIRVYSVDNSKNHDECMNTLADAGIYLVLDVNTPKYSINRAKPKESYNDVYLQYIFATVDAFAGYKNTLAFFSGNEVINDGPSSSAAPYVKAVTRDLRQYIRSRKYREIPVGYSAADIDTNRLQMAQYMNCGSDDERSDFFAFNDYSWCDPSSFKTSGWDQKVKNFTGYGLPLFLSEYGCNTNKRQFQEVSSLYSTDMTGVYSGGLVYEYSQEASNYGLVEISGNNVKELPDFDALKTAFEKTSNPSGDGNYNKTGGANPCPAKDAPNWDVDNDALPAIPEPAKKYMTEGAGKGPGFAGPGSQDRGTQSTATAEPGSGSATGSSSSGTSTSSKGAAAGLTVPSLTMAPVVVGAVTLLSTVFGAGLVLL chain 2: DDVTPITVKGNAFFKGDERFYIRGVDYQPGGSSDLADPIADADGCKRDIAKFKELGLNTIRVYSVDNSKNHDECMNTLADAGIYLVLDVNTPKYSINRAKPKESYNDVYLQYIFATVDAFAGYKNTLAFFSGNEVINDGPSSSAAPYVKAVTRDLRQYIRSRKYREIPVGYSAADIDTNRLQMAQYMNCGSDDERSDFFAFNDYSWCDPSSFKTSGWDQKVKNFTGYGLPLFLSEYGCNTNKRQFQEVSSLYSTDMTGVYSGGLVYEYSQEASNYGLVEISGNNVKELPDFDALKTAFEKTSNPSGDGNYNKTGGANPCPAKDAPNWDVDNDALPAIPEPAKKYMTEGAGKGPGFAGPGSQDRGTQSTATAEPGSGSATGSSSSGTSTSSKGAAAGLTVPSLTMAPVVVGAVTLLSTVFGAGLVLL",storage stability,"[2]; 4° C. in 10 mM citrate buffer pH 5.0 for several weeks, speed-vac dried and re-suspended, or −20° C.",without significant loss of activity
same,pH optimum,[2]; citrate buffer,about 5.0
